According to PubChem BioAssay AID1996:
≈ marks a conversion by molar mass, not a printed value.

Conditions: buffer; pH 7.4; 200.0 µM

Compound	solubility kinetic
O=C(c1c[nH]c2ccccc12)N1CCN(c2ccccc2)CC1	> 45.8 µg/mL
Cc1ccc(SC(C)C(=O)NC2CC2)cc1 (centres undefined)	> 35.3 µg/mL
COc1ccc(-c2csc3ncnc(NCCCO)c23)cc1	42.2 µg/mL (≈ 134 µM)
Cc1ccc(Cl)cc1NC(=O)CN1CCOCC1	> 40.3 µg/mL
CC1(C)C(=O)Nc2ccccc2N1C(=O)COC(=O)c1cccs1	9.6 µg/mL (≈ 27.9 µM)
Cc1ccc(-n2c(-c3ccc(Cl)cc3)c[n+]3c2CCC3)cc1.[Br-]	> 58.5 µg/mL
CC(=O)c1cccc(NC(=O)NCCc2c[nH]c3ccccc23)c1	2.2 µg/mL (≈ 6.85 µM)
CC(NC(=O)CCCc1c[nH]c2ccccc12)c1ccc(F)cc1 (centres undefined)	41.5 µg/mL (≈ 128 µM)
Cc1ccc(S(=O)(=O)N2CCC(C(=O)NCC3CCCCC3)CC2)cc1	1.6 µg/mL (≈ 4.23 µM)
Cc1cccc(NC(=O)Cn2cc(C=O)c3ccccc32)c1	0.9 µg/mL (≈ 3.08 µM)
CN(C(=O)CSCC(=O)Nc1ccc(Cl)cc1)C1CCCCC1	5.9 µg/mL (≈ 16.6 µM)
COc1ccc(N=Cc2cc(Cl)ccc2O)cc1Cl	18 µg/mL (≈ 60.8 µM)
CCc1cccc(C)c1NC(=O)CSc1nnc(C)o1	> 43.7 µg/mL
CCOc1cc(OCC)cc(C(=O)NCCCN2CCOCC2)c1	48.4 µg/mL (≈ 144 µM)
Nc1cccc(S(=O)(=O)Nc2ccc(Br)cc2)c1	> 49.1 µg/mL
CNS(=O)(=O)c1cccc(C(=O)OCC(=O)N2CCCC2)c1	45.2 µg/mL (≈ 138 µM)
Cc1c(Cl)cccc1NC(=O)CNC(=O)c1ccc2c(c1)OCCO2	18 µg/mL (≈ 49.9 µM)
CCOC(=O)N1CCN(CC(=O)Nc2ccc(F)cc2F)CC1	> 49.1 µg/mL
O=C(CCCl)Nc1nc2c(s1)CCc1ccccc1-2	7.2 µg/mL (≈ 24.6 µM)
COc1cccc(N2CCN(C(=O)/C=C/c3ccco3)CC2)c1	44.6 µg/mL (≈ 143 µM)
CCOc1cc(C(=O)NC)cc(Br)c1OCc1ccccc1	< 0.8 µg/mL
O=C(NCCCCc1ccccc1)Nc1ccc(F)cc1	2.3 µg/mL (≈ 8.03 µM)
CC(C)=CC1C(C(=O)NCCc2ccccc2)C1(C)C (centres undefined)	27.6 µg/mL (≈ 102 µM)
COCCn1c(SCc2ccccc2)nc2c1c(=O)[nH]c(=O)n2C	> 52 µg/mL

Compound	solubility kinetic
COc1ccc(/C=C/c2cc(C(F)(F)F)on2)cc1	1.3 µg/mL (≈ 4.83 µM)
CC1CC(CN)CC(CO)C1 (centres undefined)	> 23.6 µg/mL
COC(=O)NC1c2ccccc2Oc2ccc(C)cc21 (centres undefined)	< 0.6 µg/mL
COC(=O)c1c(NC(C)=O)sc(C(=O)Nc2ccccc2F)c1C	< 0.4 µg/mL
Cc1ccccc1-c1nc(S(=O)(=O)c2ccccc2)c(N2CCCC2)o1	10.1 µg/mL (≈ 27.4 µM)
O=C(CN1C(=O)C2CC=CCC2C1=O)NC1CCCCC1 (centres undefined)	42.5 µg/mL (≈ 146 µM)
Cc1ccc(C(=O)NCC(=O)OCc2c(F)cccc2Cl)s1	9.2 µg/mL (≈ 26.9 µM)
COc1cc2c(cc1OC)C(c1ccccc1Br)NC(=O)C2 (centres undefined)	> 54.3 µg/mL
Cc1nsc(N)c1C(=O)O	> 23.7 µg/mL
COc1ccc(CN2C(=O)c3ccccc3C2OC)cc1 (centres undefined)	> 42.5 µg/mL
COc1ccccc1NC(=O)c1ccc(NC(=O)COC(=O)c2cncc(Br)c2)cc1	10 µg/mL (≈ 20.6 µM)
CCCNC(=S)N1CCC(C(=O)c2ccc(F)cc2)CC1	> 46.3 µg/mL
CCN(CC)c1cc(Cl)nc(N)n1	25.9 µg/mL (≈ 129 µM)
CC(C)[C@H](NC(=O)c1ccccc1)C(=O)NC1CCCCCCC1	1.8 µg/mL (≈ 5.45 µM)
CCCC(=O)OCC(=O)NCc1ccc(Cl)cc1	35.8 µg/mL (≈ 133 µM)
Cc1ccc(-n2nc3c(c2NC(=O)C(C)C)CS(=O)(=O)C3)c(C)c1	> 52.1 µg/mL
Cc1cc(N2CCN(C(=O)Nc3ccc(F)cc3F)CC2)c2ccccc2n1	> 57.4 µg/mL
Cc1cc(C(=O)COC(=O)C2=COCCO2)c(C)n1-c1ccccc1	14.9 µg/mL (≈ 43.6 µM)
CC1CCCCC1NC(=S)NC(=O)c1ccccc1Cl (centres undefined)	1.6 µg/mL (≈ 5.15 µM)
O=C(COC(=O)Cc1cccc(C(F)(F)F)c1)NC(=O)NC1CCCC1	32.1 µg/mL (≈ 86.2 µM)
Cn1cccc1C(=O)NCCc1ccc(Cl)cc1	36.1 µg/mL (≈ 137 µM)
Cc1ccc(C2CC(=O)C=C(NCc3ccccc3)C2)cc1 (centres undefined)	12.7 µg/mL (≈ 43.6 µM)
O=C(c1cc(-c2ccncc2)nc2ccccc12)N1CCN(c2ncccn2)CC1	55.4 µg/mL (≈ 140 µM)
O=C(OCC(=O)N1CCCC1)c1ccc(Cl)c([N+](=O)[O-])c1	31.8 µg/mL (≈ 102 µM)

Compound	solubility kinetic
Cc1ccc(OCC(=O)N(Cc2ccccc2)c2ccccn2)cc1	49.6 µg/mL (≈ 149 µM)
O=C(NCc1ccccc1F)c1cc(=O)[nH]c2ccccc12	4.9 µg/mL (≈ 16.5 µM)
O=[N+]([O-])c1cccc(/C=C/c2ccncc2)c1	11.9 µg/mL (≈ 52.6 µM)
OCCC1CN(CC2CCCCC2)CCN1CC1CCCCC1 (centres undefined)	> 48.4 µg/mL
COc1ccc(N2CCN(C(=O)c3ccccc3F)CC2)c([N+](=O)[O-])c1	40.7 µg/mL (≈ 113 µM)
COC(=O)Cn1cnc2scc(-c3ccc(C)cc3)c2c1=O	> 47.2 µg/mL
CCOc1ccc(C(=O)CCC(=O)N2CCN(c3ccccc3O)CC2)cc1	2.2 µg/mL (≈ 5.75 µM)
COC(=O)CNC(=O)c1ccc(F)cc1	27.1 µg/mL (≈ 128 µM)
O=C1[C@@H]2CSCN2C(=O)CN1Cc1ccc(F)cc1	> 42 µg/mL
CC(C)CC(=O)NC(C)C(c1cccs1)N1CCOCC1 (centres undefined)	45.4 µg/mL (≈ 146 µM)
Cc1ccsc1-c1nc(CN2C[C@@H](C)O[C@@H](C)C2)c(C)o1	> 46 µg/mL
Cn1c(O)c(/C=C2\C=Nc3ccc(Br)cc32)c(=O)n(C)c1=O	0.9 µg/mL (≈ 2.48 µM)
Clc1ccccc1OCCCOc1cccc2cccnc12	3.9 µg/mL (≈ 12.4 µM)
CCc1nc(N2CCN(C(C)=O)CC2)c(C#N)c2c1COC(C)(C)C2	> 51.4 µg/mL
Cc1c(C(=O)O)sc2c1c(=O)n(Cc1ccccc1)c(=O)n2C	> 49.6 µg/mL
CCC(CC)C(=O)NCc1ccc(Cl)cc1	> 36 µg/mL
CC(=NCCc1ccccc1)c1c(O)n(C)c(=O)n(C)c1=O	37.2 µg/mL (≈ 123 µM)
CC(=O)N1CCCSC1=Nc1ccccc1	> 35.1 µg/mL
Cc1csc(NC(=O)c2cc(C)on2)n1	> 33.5 µg/mL
O=C(CN1C(=O)c2cccc([N+](=O)[O-])c2C1=O)NNC(=O)c1ccc(F)cc1	> 57.9 µg/mL
CCOC(=O)C(=CNc1nc2ccc(C(=O)OCC)cc2s1)C(=O)OCC	< 0.4 µg/mL
Cc1ccc(NS(=O)(=O)c2ccc3c(c2)n(C)c(=O)n3C)cc1C	1.2 µg/mL (≈ 3.47 µM)
O=C(O)c1ccc(S(=O)(=O)NC2CCCCCC2)cc1	> 44.6 µg/mL
CCn1c(NC(C)=O)c(-c2ccccc2Cl)c(=O)c2ccccc21	49.5 µg/mL (≈ 145 µM)

Compound	solubility kinetic
O=C(NCc1cccnc1)Nc1cccc(Cl)c1Cl	27.7 µg/mL (≈ 93.5 µM)
Cc1cc(C)nc(Nc2cccc(Cl)c2)n1.Cl	5.9 µg/mL
CN(C)CCO[C@@H](c1ccc(Cl)cc1)c1ccccn1.O=C(O)/C=C\C(=O)O	> 61 µg/mL
CC(C)c1ccccc1NC(=S)NC1CCCCC1	> 41.5 µg/mL
CCc1ccnc(NS(=O)(=O)c2ccc3c(c2)OCCO3)c1	7.2 µg/mL (≈ 22.5 µM)
CC(C)(C)c1ccc(C(=O)NC2CCS(=O)(=O)C2)cc1 (centres undefined)	> 44.3 µg/mL
O=C(O)C1CCC(=O)N(C2CCCCC2)C1c1ccccc1Cl (centres undefined)	> 50.4 µg/mL
Cc1noc(C)c1CSCC(=O)Nc1ccc(C#N)c(Cl)c1	> 50.4 µg/mL
COc1ccccc1CNC(=O)COC(=O)Cc1cccc(F)c1	> 49.7 µg/mL
CCC(C(=O)OCC(=O)Nc1ccc(OC)cc1OC)c1ccccc1 (centres undefined)	3.5 µg/mL (≈ 9.79 µM)
Cc1ccc(CC(=O)NCC2CCCCC2)cc1	9.3 µg/mL (≈ 37.9 µM)
CC(C)[C@H](NC(=O)c1ccc(C(C)(C)C)cc1)C(=O)N1CCN(Cc2ccc3c(c2)OCO3)CC1	7.9 µg/mL (≈ 16.5 µM)
On1c(-c2ccccc2)nc2ccccc21	> 31.5 µg/mL
O=C(COC(=O)/C=C/c1cccc(F)c1)Nc1ncccn1	27.7 µg/mL (≈ 91.9 µM)
COc1ccc2[nH]cc(CCNC(=O)c3ccc([N+](=O)[O-])cc3)c2c1	26.3 µg/mL (≈ 77.5 µM)
CCc1ccc(OCCCC(=O)Nc2cccc(C(=O)O)c2)cc1	> 49.1 µg/mL
O=C(Nc1c[nH]c(=O)[nH]c1=O)c1ccccc1Cl	> 39.8 µg/mL
O=C(CCSCc1ccc(Cl)cc1)NCc1ccco1	39.5 µg/mL (≈ 127 µM)
CCC(=O)Nc1ccc2c(c1)ncn2-c1ccccc1C	> 41.9 µg/mL
O=C1CCCN1CCCNS(=O)(=O)c1cccs1	> 43.3 µg/mL
CN1CCN(c2nc(-c3cccc([N+](=O)[O-])c3)nc3ccccc23)CC1	8.5 µg/mL (≈ 24.3 µM)
CCOc1cc(C(=O)NC2CCCCCCC2)cc(OCC)c1OCC	2.3 µg/mL (≈ 6.33 µM)
COCc1cc(C)nc(SCC(=O)Oc2ccccc2)c1C#N	29.1 µg/mL (≈ 88.6 µM)
Cc1ccc(NC(=O)c2cccc3cccnc23)cc1	6.7 µg/mL (≈ 25.5 µM)

Compound	solubility kinetic
O=C(COC(=O)CCC(=O)c1ccc(F)cc1)NCCc1ccccc1	49.1 µg/mL (≈ 137 µM)
Cc1sc2nc(CSC(C)C(=O)N3CCOCC3)[nH]c(=O)c2c1C (centres undefined)	> 55.1 µg/mL
N#Cc1ccccc1NC(=S)Nc1ccc(F)cc1	35.1 µg/mL (≈ 129 µM)
O=C(O)CSc1ncnc2scc(-c3ccccc3)c12	> 45.4 µg/mL
Cn1c(N)c(C(=O)COC(=O)c2cccc(S(=O)(=O)NCc3ccccc3)c2)c(=O)n(C)c1=O	17.6 µg/mL (≈ 36.2 µM)
Cc1ccccc1NS(=O)(=O)c1ccc(C(=O)N(C)CC(=O)Nc2ccccc2Br)cc1	73 µg/mL (≈ 141 µM)
Cc1ccc(OCCCCCN2CCOCC2)c(Cl)c1	26.3 µg/mL (≈ 88.3 µM)
CN(CC(=O)Nc1ccccc1C(F)(F)F)C(=O)C1CC1	> 45 µg/mL
Cc1ccc(C2C(=O)NC(=O)NC2=O)cc1	27.7 µg/mL (≈ 127 µM)
O=C(O)c1ccccc1C(=O)NCC(O)c1ccccc1 (centres undefined)	> 42.8 µg/mL
O=C(Nc1ccccc1F)c1ccc(-c2cccc([N+](=O)[O-])c2)o1	2 µg/mL (≈ 6.13 µM)
Cc1cnc(C(=O)OCc2nc3ccccc3o2)cn1	> 40.4 µg/mL
CC(OC(=O)c1cccc([N+](=O)[O-])c1)C(=O)NCc1ccc2c(c1)OCO2 (centres undefined)	22.4 µg/mL (≈ 60.2 µM)
Cc1cc(N/N=C/c2ccc(O)cc2O)nc(N2CCOCC2)n1	> 49.4 µg/mL
Cc1ccc(NC(=O)COC(=O)CCc2ccccc2)c(Cl)c1	6.9 µg/mL (≈ 20.8 µM)
Cc1ccsc1C(=O)N1CCN(C(=O)c2ccco2)CC1	> 45.7 µg/mL
CC(CN1CCCCC1)OC(=O)COc1ccc(Cl)cc1.Cl (centres undefined)	> 52.2 µg/mL
O=C(/C=C/c1cccs1)N1CCN(c2ccccc2)CC1	1.6 µg/mL (≈ 5.36 µM)
Cc1c([N+](=O)[O-])c2ccc(O)cc2n1-c1ccccc1	1 µg/mL (≈ 3.73 µM)
COc1ccc(COC(=O)CNC(=O)C2CCCCC2)cc1F	18.4 µg/mL (≈ 56.9 µM)
COc1ccc(N/N=C(\C#N)C(=N)N2CCOCC2)cc1	> 43.1 µg/mL
O=[N+]([O-])c1ccc(Oc2cccnc2)nc1	25.5 µg/mL (≈ 117 µM)
CC(=O)c1cn(Cc2ccccc2F)c2ccccc12	< 0.6 µg/mL
